How the values were obtained:
[1] = maximum tolerated dose of clofarabine; type: in vivo; details: species and route not given
Procedure: It may be necessary to use dosages of the active ingredient outside the ranges disclosed herein in some cases, as will be apparent to those of ordinary skill in the art, but the dosage should not fall below 0.01 mg/kg/day. The maximum tolerated doses of clofarabine is approximately 80 mg/kg per day. Furthermore, it is noted that the clinician or treating physician will know how and when to interrupt, adjust, or terminate therapy in conjunction with individual patient response.

[2] = degradation of the drug during dissolution, lyophilization and drying (parenteral formulation); type: physicochemical; details: dissolved in 1:1 tertiary butanol/Water for Injection at 5° C., lyophilized at −16° C. for 48 hours, dried at 15° C. under high vacuum for 48 hours, protected from light
Procedure: Clofarabine, 9.86 g, is wetted/partially dissolved with 600 mL of a 9:1 mixture of tertiary butanol and Water for Injection USP which is pre-cooled to 5° C. Once the drug powder is completely wetted, dissolution is completed by the addition of 600 mL of a 1:9 mixture of tertiary butanol and Water for Injection and 766 mL of a 1:1 mixture of tertiary butanol and Water for Injection which likewise is pre-cooled to 5° C. thereby making the final solution a 1:1 mixture. The dissolution is carried out under protection from light.
The solution formed above is promptly lyophilized in a Virtis INOTOP lyophilizer at −16° C. under light protectant conditions over a period of 48 hours. The resultant lyophilized product (lyophile) is then further dried at 15° C. under high vacuum for 48 hours. […] The lyophile is packaged under sterile conditions into 30 mL vials, each containing 50 mg of drug, 50 mg of mannitol and sodium hydroxide to adjust the pH to 7.7 and standard excess to allow for vial/needle/syringe loss.

For `Nc1nc(Cl)nc2c1ncn2[C@@H]1O[C@H](CO)[C@@H](O)[C@@H]1F` [Clofarabine, 2-Chloro-9-(2-deoxy-2-fluoro-β-D-arabinofuranosyl)adenine], the maximum tolerated dose [1] was “approximately 80 mg/kg per day” and the “degradation of the drug” value [2] was “No detectable degradation”.

Reference: patent US20090297478A1, “Methods and Compositions for the Treatment of Lupus Using Clofarabine” (priority 2002, published 2009)
